Like-named read-outs stand apart in the source and are kept apart here. One block for each compound: values may come before it.
Tests used:
[1] = PAMPA permeability assay; assay type: in vitro ADME; conditions: PAMPA; for recovery at 5 hr, 10 μM: pH 7, PAMPA, donor and acceptor compartments; for Papp at 5 h, 10 μM: pH 7, pH 7, 10 μM
[2] = tested on: MRC5 cells; assay: Cell viability assay in MRC5 cells (MTT)
[3] = biological target: PDGFRβ (Homo sapiens (Human), UniProt P09619); assay: PDGF-BB induced phosphorylation of PDGFRβ in fibroblasts (MRC5 cells, HTRF); assay type: cell-based; conditions: MRC5 cells; n = 1 unless otherwise indicated; read-out: PDGFBB-induced PDGFRβ phosphorylation in MRC5 cells (IC50)
[4] = Pharmacokinetic measurements in rats (intravenous and intra-tracheal dosing); assay type: in vivo; conditions: rat
[5] = Pharmacokinetic measurements in mice (intravenous and intra-nasal dosing); assay type: in vivo; conditions: mouse; for concentration at 0.1 h / concentration at 1.5 h / concentration at 24 h: lung, read-out: lung concentration (nM) at time (h)

Chain of PDGFRβ (P09619 33-1106): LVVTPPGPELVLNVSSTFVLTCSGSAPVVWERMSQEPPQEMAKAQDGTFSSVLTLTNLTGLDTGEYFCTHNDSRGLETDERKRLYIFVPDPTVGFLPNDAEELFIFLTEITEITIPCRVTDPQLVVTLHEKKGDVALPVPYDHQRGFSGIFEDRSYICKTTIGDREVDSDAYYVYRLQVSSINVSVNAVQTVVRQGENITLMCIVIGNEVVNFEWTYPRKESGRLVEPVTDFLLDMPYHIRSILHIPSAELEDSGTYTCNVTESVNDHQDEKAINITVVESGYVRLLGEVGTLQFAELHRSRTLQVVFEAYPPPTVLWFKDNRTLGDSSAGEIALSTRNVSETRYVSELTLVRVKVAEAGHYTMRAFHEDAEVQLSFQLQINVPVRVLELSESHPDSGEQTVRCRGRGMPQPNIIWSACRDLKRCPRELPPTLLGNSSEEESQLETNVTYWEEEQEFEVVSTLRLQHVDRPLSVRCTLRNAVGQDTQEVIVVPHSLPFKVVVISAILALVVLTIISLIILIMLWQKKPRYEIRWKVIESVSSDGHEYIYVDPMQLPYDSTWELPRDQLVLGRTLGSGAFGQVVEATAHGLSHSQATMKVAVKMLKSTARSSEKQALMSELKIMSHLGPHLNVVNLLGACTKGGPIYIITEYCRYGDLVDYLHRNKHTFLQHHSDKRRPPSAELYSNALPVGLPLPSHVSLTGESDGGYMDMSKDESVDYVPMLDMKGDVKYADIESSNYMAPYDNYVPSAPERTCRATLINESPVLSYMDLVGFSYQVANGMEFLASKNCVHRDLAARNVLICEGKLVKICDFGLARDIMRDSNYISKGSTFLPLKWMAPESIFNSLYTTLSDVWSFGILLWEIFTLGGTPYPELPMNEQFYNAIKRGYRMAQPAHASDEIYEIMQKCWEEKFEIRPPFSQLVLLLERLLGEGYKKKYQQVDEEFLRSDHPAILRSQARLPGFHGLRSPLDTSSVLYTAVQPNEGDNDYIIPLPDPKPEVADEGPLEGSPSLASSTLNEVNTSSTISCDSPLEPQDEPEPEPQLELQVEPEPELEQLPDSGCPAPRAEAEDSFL

recovery at 5 hr, 10 μM [1]: 40.2%
Papp at 5 h, 10 μM [1]: 0.0156 ×10⁻⁶ cm/s
SMILES: COC(=O)c1cc2c(cc1C)/C(=C(/Nc1ccc(C(=O)NOCCN(C)C)cc1)c1ccccc1)C(=O)N2 [Example 26]
Cell viability at 100 nM (%) [2]: 111.8%
Cell viability at 300 nM (%) [2]: 111.4%
Cell viability at 1000 nM (%) [2]: 88%

recovery at 5 hr, 10 μM [1]: 69%
Papp at 5 h, 10 μM [1]: 0.00407 ×10⁻⁶ cm/s
SMILES: COC(=O)c1cc2c(cc1C)/C(=C(/Nc1ccc(C(=O)NOCCN3CCN(C)CC3)c(C)c1)c1ccccc1)C(=O)N2 [Example 28]
Cell viability at 100 nM (%) [2]: 110.2%
Cell viability at 300 nM (%) [2]: 117%
Cell viability at 1000 nM (%) [2]: 104.8%

recovery at 5 hr, 10 μM [1]: 67.4%
Papp at 5 h, 10 μM [1]: 0.22 ×10⁻⁶ cm/s
SMILES: COC(=O)c1cc2c(cc1C)/C(=C(/Nc1ccc(S(=O)(=O)NOCCN(C)C)cc1)c1ccccc1)C(=O)N2 [Example 48]
Cell viability at 100 nM (%) [2]: 132.6%
Cell viability at 300 nM (%) [2]: 121%
Cell viability at 1000 nM (%) [2]: 103.5%

recovery at 5 hr, 10 μM [1]: 59.1%
Papp at 5 h, 10 μM [1]: 0.154 ×10⁻⁶ cm/s
SMILES: COC(=O)c1cc2c(cc1C)/C(=C(/Nc1ccc(C(=O)NOCCCN3CCC(OC)CC3)cc1)c1ccccc1)C(=O)N2 [Example 55]
Cell viability at 100 nM (%) [2]: 106.7%
Cell viability at 300 nM (%) [2]: 111.1%
Cell viability at 1000 nM (%) [2]: 92.3%

recovery at 5 hr, 10 μM [1]: 72.8%
Papp at 5 h, 10 μM [1]: 0.00628 ×10⁻⁶ cm/s
SMILES: COC(=O)c1cc2c(cc1C)/C(=C(/Nc1ccc(C(=O)N(C)OCCN3CCN[C@@H](C)C3)cc1)c1ccccc1)C(=O)N2 [Example 62]
Cell viability at 100 nM (%) [2]: 80.7%
Cell viability at 300 nM (%) [2]: 73.8%
Cell viability at 1000 nM (%) [2]: −0.2%

SMILES: COC(=O)c1cc2c(cc1C)/C(=C(/Nc1ccc(C(=O)N(C)OCCN3CCN[C@H](C)C3)cc1)c1ccccc1)C(=O)N2 [Example 65]
Cell viability at 100 nM (%) [2]: 118.6%
Cell viability at 300 nM (%) [2]: 110.3%
Cell viability at 1000 nM (%) [2]: 70.5%

IC50 [3]: 16.5 nM
SMILES: CCN(OCCN1CCNCC1)C(=O)c1ccc(N/C(=C2\C(=O)Nc3cc(C(=O)OC)c(C)cc32)c2ccccc2)cc1 [Example 68]

IC50 [3]: 14.3 nM
SMILES: COC(=O)c1cc2c(cc1C)/C(=C(/Nc1ccc(C(=O)N(OCCN3CCNCC3)C(C)C)cc1)c1ccccc1)C(=O)N2 [Example 69]
Cell viability at 100 nM (%) [2]: 92.5%
Cell viability at 300 nM (%) [2]: 93.1%
Cell viability at 1000 nM (%) [2]: 74.0%

IC50 [3]: 9.98 nM
SMILES: COC(=O)c1cc2c(cc1C)/C(=C(/Nc1ccc(C(=O)NOCCN3CCNC(=O)C3)cc1)c1ccccc1)C(=O)N2 [Example 70]
Cell viability at 100 nM (%) [2]: 91.7%
Cell viability at 300 nM (%) [2]: 99.7%
Cell viability at 1000 nM (%) [2]: 94.0%

IC50 [3]: 23.2 nM
SMILES: CNC(=O)CN1CCN(CCON(C)C(=O)c2ccc(N/C(=C3\C(=O)Nc4cc(C(=O)OC)ccc43)c3ccccc3)cc2)CC1 [Example 71]

IC50 [3]: 36.7 nM
SMILES: CNC(=O)CN1CCN(CCONC(=O)c2ccc(N/C(=C3\C(=O)Nc4cc(C(=O)OC)ccc43)c3ccccc3)cc2)CC1 [Example 72]

SMILES: CNC(=O)CN1CCN(CCONC(=O)c2ccc(N/C(=C3\C(=O)Nc4cc(C(=O)OC)c(C)cc43)c3ccccc3)cc2)CC1 [Example 73]
Cell viability at 100 nM (%) [2]: 82.9%
Cell viability at 300 nM (%) [2]: 104%
Cell viability at 1000 nM (%) [2]: 96.8%

SMILES: COC(=O)c1ccc2c(c1)NC(=O)/C2=C(\Nc1ccc(N(C)C(=O)CN2CCN(C)CC2)cc1)c1ccccc1 [Nintedanib, reference compound]
i.t. BAV (%) ([4]; i.t. dosing (i.t. dose 0.1-0.5 per compound)): 43%
BAL % administered dose at time (h) ([4]; i.t. dosing, 0.1 h): 2%
BAL % administered dose at time (h) ([4]; i.t. dosing, 1.5 h): 1%
BAL % administered dose at time (h) ([4]; i.t. dosing, 24 h): 0.1%
BAL % administered dose at time (h) ([4]; i.v. dosing, 0.1 h): 0.06%
BAL % administered dose at time (h) ([4]; i.v. dosing, 1.5 h): 0.03%
BAL % administered dose at time (h) ([4]; i.v. dosing, 24 h): BQL
concentration at 0.1 h ([5]; male, C57BL/6J, iv, i.v. dosing, 0.1 h, mean): 2380 nM
concentration at 1.5 h ([5]; male, C57BL/6J, iv, i.v. dosing, 1.5 h, mean): 1340 nM
concentration at 24 h ([5]; male, C57BL/6J, iv, i.v. dosing, mean): 10 nM
concentration at 0.1 h ([5]; male, C57BL/6J, other: intra-nasal, i.n. dosing, 0.1 h, mean): 2760 nM
concentration at 1.5 h ([5]; male, C57BL/6J, other: intra-nasal, i.n. dosing, 1.5 h, mean): 804 nM
concentration at 24 h ([5]; male, C57BL/6J, other: intra-nasal, i.n. dosing, mean): 15 nM
clearance ([5]; male, C57BL/6J, whole blood, iv): 81 mL/min/kg
MRT ([5]; male, C57BL/6J, whole blood, iv, i.v. dosing, mean): 2 h
Vd ([5]; male, C57BL/6J, whole blood, iv, i.v. dosing, mean, read-out: Vss): 10 L/kg
half-life ([5]; male, C57BL/6J, whole blood, iv, i.v. dosing, mean, read-out: t½ (converted)): 2 h
BAL % administered dose at time (h) ([5]; i.n. dosing, 0.1 h): 0.5%
BAL % administered dose at time (h) ([5]; i.n. dosing, 1.5 h): 0.1%
BAL % administered dose at time (h) ([5]; i.v. dosing, 0.1 h): 0.3%
BAL % administered dose at time (h) ([5]; i.v. dosing, 1.5 h): 0.03%
Cell viability at 100 nM (%) [2]: 104.6%
Cell viability at 300 nM (%) [2]: 105.6%
Cell viability at 1000 nM (%) [2]: 92.7%

Source: patent publication US11046672B2, “Indolinones compounds and their use in the treatment of fibrotic diseases” (RESPIVERT LIMITED, priority 2015, dated 2021)
